Converted amounts (≈) assume the structure as drawn.
Columns and labels:
[1] = tested on: E. coli D22; assay: MIC, NCCLS M7-A6 broth microdilution, E. coli D22; format: cell-based; conditions: Escherichia coli, D22, 16 to 20 h, 35 degrees Celsius
Procedure: (§1) Susceptibilities to the compounds were determined using the National Committee for Clinical Laboratory Standards (NCCLS) M7-A6 broth microdilution method. Cation-adjusted Mueller-Hinton broth (Ca^2+, 25 μg/mL; Mg^2+, 12.5 μg/mL) microdilution panels were prepared to contain antimicrobial doubling dilution concentrations of an appropriate range. DMSO (dimethylsulfoxide) controls were incorporated into the panel to mimic the quantity of DMSO used in dissolving some of the compounds at the higher concentrations. Each final panel well volume was 100 μL with a bacterial inoculum of 5×10^5 CFU (colony forming units)/mL of the relevant bacterium. Panels were read following 16 to 20 h of incubation at 35 degrees Celsius in ambient air. The MIC (minimum inhibitory concentration) was defined as the lowest concentration of antimicrobial inhibiting visible growth.

[2] = target: AcpS enzyme (Escherichia coli, UniProt P24224); assay: Measurement of AcpS inhibition ([3H]acetyl-CoA incorporation into apo-ACP); format: biochemical; conditions: % activity vs blank-subtracted counts
Chain of AcpS enzyme (P24224 whole entry): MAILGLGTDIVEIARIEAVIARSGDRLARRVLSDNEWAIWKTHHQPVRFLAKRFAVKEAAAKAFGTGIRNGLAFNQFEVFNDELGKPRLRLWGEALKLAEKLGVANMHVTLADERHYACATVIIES
Procedure: [^3H]Acetyl-CoA was mixed as 1 volume of Perkin Elmer NET290 radiolabeled stock (e.g. 0.1 mCi/ml, 3.7 Ci/mmol in Na-acetate, pH 4.5-5.0=27 μM) with 1.2 volumes of 1 mM unlabelled acetyl-CoA (Sigma). Trichloroacetic acid was prepared as a 10% w/v solution. Bovine serum albumin was prepared as a 25 mg/ml solution in water. DTT was prepared as a 50 mM solution in water.
• 1. A standard reaction contained the following in a total volume of 10 μl:
• 2. Tubes were incubated at RT. [^3H]acetyl-CoA was added last to start the reaction. To stop the reaction, 2 μl was removed to a 1.5-ml microfuge tube containing 800 μl cold 10% TCA. Up to four time points were collected for each reaction, e.g. at 5 min, 10 min, 30 min, and 60 min. • 3. 20 μl of 25 mg/ml BSA was added to each tube, mixed and incubated on ice for 10 min, then centrifuged at 12,000 g for 5 min to form a pellet. Supernatant was removed using P1000. • 4. Each pellet was washed twice with 800 μl of cold 10% TCA each time, then centrifuged at 12,000 g for 5 min after each wash. The supernatant was discarded. Each pellet was resuspended in 50 μl of formic acid. The suspension was transferred to a scintillation vial and radioactivity was measured in 2 ml of liquid scintillation cocktail.
The random (stochastic) error in scintillation counting is proportional to the square root of the counts (not dpm) accumulated in the counting period; i.e. 10% for 100, 3.3% for 1,000, 1% for 10,000, etc. Provided radioactive counts (dpm) are in the thousands, the assay provides useful data. Results are reported in terms of % activity with respect to the blank-subtracted counts for working substrate. A % activity of less than about 40% is indicative of AcpS enzyme inhibition by the test compound at that concentration.

[3] = tested on: Methicillin-Resistant Staph. aureus (MRSA); assay: MIC, NCCLS M7-A6 broth microdilution, MRSA; format: cell-based; conditions: Staphylococcus aureus, MRSA, 16 to 20 h, 35 degrees Celsius
Procedure: as §1

[4] = tested on: Streptococcus pneumoniae Group A; assay: MIC against Streptococcus pneumoniae Group A; format: cell-based; conditions: initial measurement, Todd Hewitt broth
Procedure: as §1
Generally following the procedure of Example 9, but using Todd Hewitt broth (beef heart digest) rather than Mueller-Hinton broth, MICs were initially measured against Streptococcus pneumoniae Group A for compounds of the present invention as follows: […]

Row | SMILES | MIC [1] [µM] | activity at 50 µM ([2]; test compound 50 uM) [%] | remaining activity at 500 µM ([2]; test compound 500 uM) [%] | MIC [3] [µM] | MIC [4] [µM]
1 | Cc1ccc(-c2cc(-c3nnn[nH]3)sc2Cc2ccc(Cl)cc2)c2ccccc12 [DNM0577, 5-(5-(4-Chlorobenzyl)-4-(4-methylnaphthalen-1-yl)thiophen-2-yl)-1H-tetrazole] | > 125 | 5.54 | 0.4 | 8 (≈ 3.34 µg/mL) | –
2 | Cc1c(-c2nnn[nH]2)sc(-c2ccc(C)c3ccccc23)c1-c1ccc(C)c2ccccc12 [DNM0620, 5-(4,5-Bis(4-methylnaphthalen-1-yl)-3-methylthiophen-2-yl)-1H-tetrazole] | – | – | – | – | < 0.25
3 | Cc1c(-c2nnn[nH]2)sc(-c2ccc(Cl)cc2C(C)C)c1-c1ccc(Cl)cc1C(C)C [DNM0631, 5-(4,5-Bis(4-chloro-2-isopropylphenyl)-3-methylthiophen-2-yl)-1H-tetrazole] | – | – | – | – | < 0.25

— patent US9012655B2, “Antimicrobial/adjuvant compounds and methods” (Denouamed, Inc., priority 2011, dated 2015)
